# Assay results as given in article PMC6973011, “Stafia‐1: a STAT5a‐Selective Inhibitor Developed via Docking‐Based Screening of in Silico O‐Phosphorylated Fragments” (Chemistry (Weinheim an Der Bergstrasse, Germany), 2019).
# Like-named read-outs stand apart in the source and are kept apart here.
# Assays:
# STAT5a = biological target: T1, STAT5a (Homo sapiens, UniProt P42229); assay: Fluorescence polarization competitive binding assay, STAT5a; conditions: for inhibition at 100 µM: read-out: Inhibition of STAT5a at 100 µM
# T1 construct: made in house
# T1 sequence (P42229 1-794): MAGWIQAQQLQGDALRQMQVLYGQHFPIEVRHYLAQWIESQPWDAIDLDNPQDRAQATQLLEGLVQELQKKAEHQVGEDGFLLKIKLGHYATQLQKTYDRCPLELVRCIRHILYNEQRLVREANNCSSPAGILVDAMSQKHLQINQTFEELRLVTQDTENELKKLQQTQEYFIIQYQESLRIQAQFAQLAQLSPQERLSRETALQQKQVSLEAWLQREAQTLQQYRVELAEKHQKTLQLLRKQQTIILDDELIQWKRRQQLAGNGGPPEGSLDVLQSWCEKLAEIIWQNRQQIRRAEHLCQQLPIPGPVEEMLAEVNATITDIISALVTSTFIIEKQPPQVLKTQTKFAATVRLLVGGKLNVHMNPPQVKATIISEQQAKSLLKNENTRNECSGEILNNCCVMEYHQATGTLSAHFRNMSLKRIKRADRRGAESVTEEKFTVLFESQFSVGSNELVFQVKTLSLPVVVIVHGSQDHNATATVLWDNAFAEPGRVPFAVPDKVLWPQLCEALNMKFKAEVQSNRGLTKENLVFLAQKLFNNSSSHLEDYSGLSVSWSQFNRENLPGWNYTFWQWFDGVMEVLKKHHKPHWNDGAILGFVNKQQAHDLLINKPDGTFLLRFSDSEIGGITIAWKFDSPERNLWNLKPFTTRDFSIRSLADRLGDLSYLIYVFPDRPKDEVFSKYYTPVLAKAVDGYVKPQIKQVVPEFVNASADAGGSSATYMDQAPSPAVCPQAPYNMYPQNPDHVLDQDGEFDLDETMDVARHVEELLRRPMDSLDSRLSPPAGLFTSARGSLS
# STAT5b = biological target: T2, STAT5b (Homo sapiens, UniProt P51692); assay: Fluorescence polarization competitive binding assay, STAT5b; conditions: for inhibition at 100 µM: read-out: Inhibition of STAT5b at 100 µM; for inhibition at 200 µM: read-out: STAT5b inhibition at 200 μM
# T2 construct: made in house
# T2 sequence (P51692 1-787): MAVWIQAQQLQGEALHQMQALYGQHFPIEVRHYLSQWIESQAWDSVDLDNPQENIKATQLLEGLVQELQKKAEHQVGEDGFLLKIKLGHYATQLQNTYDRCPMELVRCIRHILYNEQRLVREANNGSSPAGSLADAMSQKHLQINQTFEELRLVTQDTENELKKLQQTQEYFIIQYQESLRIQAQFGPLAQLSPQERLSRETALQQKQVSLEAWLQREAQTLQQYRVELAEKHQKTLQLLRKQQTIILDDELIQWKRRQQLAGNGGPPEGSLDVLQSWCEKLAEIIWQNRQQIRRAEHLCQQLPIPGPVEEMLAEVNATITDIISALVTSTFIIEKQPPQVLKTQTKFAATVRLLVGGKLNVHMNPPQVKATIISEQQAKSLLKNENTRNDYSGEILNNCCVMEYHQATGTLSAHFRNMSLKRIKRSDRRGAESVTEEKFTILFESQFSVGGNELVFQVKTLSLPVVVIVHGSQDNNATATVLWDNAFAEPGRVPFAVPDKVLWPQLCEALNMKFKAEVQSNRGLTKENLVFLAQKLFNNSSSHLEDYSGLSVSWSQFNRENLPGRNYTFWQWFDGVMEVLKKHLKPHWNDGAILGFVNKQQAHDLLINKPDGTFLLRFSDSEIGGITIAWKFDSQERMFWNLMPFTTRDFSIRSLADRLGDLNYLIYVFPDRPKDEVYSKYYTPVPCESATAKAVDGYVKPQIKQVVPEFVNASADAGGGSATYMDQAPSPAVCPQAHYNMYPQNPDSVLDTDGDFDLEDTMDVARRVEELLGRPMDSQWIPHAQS
# STAT3 = STAT3 (Homo sapiens, UniProt P40763); assay: Fluorescence polarization competitive binding assay, STAT3 SH2 domain; conditions: for inhibition at 100 µM: read-out: Inhibition of STAT3 at 100 µM; for inhibition at 200 µM: read-out: STAT3 inhibition at 200 μM
# Sequence of STAT3 (P40763 whole entry, species assumed, the tested form may be a part): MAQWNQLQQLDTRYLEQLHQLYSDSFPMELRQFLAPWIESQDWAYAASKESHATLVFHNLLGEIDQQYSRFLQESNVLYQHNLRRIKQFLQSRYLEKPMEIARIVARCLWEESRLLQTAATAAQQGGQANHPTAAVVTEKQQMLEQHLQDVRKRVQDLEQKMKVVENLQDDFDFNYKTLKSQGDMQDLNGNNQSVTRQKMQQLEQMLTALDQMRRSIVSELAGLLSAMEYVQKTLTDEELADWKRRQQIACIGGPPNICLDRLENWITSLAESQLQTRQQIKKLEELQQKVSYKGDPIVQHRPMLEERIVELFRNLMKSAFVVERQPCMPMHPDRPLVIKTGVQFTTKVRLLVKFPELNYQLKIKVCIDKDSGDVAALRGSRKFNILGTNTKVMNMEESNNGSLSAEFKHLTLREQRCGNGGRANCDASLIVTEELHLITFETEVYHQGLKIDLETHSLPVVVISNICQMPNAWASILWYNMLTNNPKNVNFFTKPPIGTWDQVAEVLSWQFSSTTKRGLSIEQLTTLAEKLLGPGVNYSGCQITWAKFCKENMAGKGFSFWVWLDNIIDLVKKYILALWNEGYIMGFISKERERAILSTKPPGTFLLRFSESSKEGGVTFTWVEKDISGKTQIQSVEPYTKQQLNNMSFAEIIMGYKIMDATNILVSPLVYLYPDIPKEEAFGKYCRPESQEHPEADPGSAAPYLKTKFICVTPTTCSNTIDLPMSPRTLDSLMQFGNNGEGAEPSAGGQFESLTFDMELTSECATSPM
# From the text: Expression and purification of STAT1, STAT3, STAT4, STAT5a, STAT5b, STAT5a Trp566Arg, STAT5b Arg566Trp, STAT5b 6M, STAT5b 7M, STAT6, and Lck have previously been described.[4, 12] STAT proteins were purified over a single His-Bind resin (Millipore) column.
# Wild-type and mutant STAT5a/b proteins used for activity analysis of 20 were purified over two successive His-Bind resin columns.[4, 13]
# Fluorescence Polarization assays
# Competitive binding assays based on fluorescence polarization were essentially carried out as described.[14] Unless stated otherwise, the following final concentration of proteins were used:
# STAT4; 105 nM for STAT6; 30 nM for Lck. Final concentration of all peptides: 10 nM. Peptides used: 5-carboxyfluorescein-GpYLVLDKW for STAT5a/b and point mutants thereof; 5-carboxyfluorescein-GpYLPQTV-NH2 for STAT3; 5-carboxyfluorescein-GpYDKPHVL for STAT1; 5-carboxyfluorescein-GpYLPQNID-OH for STAT4; 5-carboxyfluorescein-
# analysis of 20 against wild-type (wt) STAT5a/b and STAT5a/b point mutants, the following concentrations of double-purified protein were used, which reflect the approximate Kd values of the interactions with 5-carboxyfluorescein-GpYLVLDKW: STAT5a wt: 147 nM; STAT5b wt:
# STAT5b 6M: 80 nM; STAT5b 7M: 282 nM. Assay buffer: 10 mM Tris (pH 8.0), 50 mM NaCl, 1 mM EDTA, 1 mM DTT, 0.1 % Nonidet P-40 substitute, and 2 % DMSO in water. A major part of the pipetting was done using a Biomek FXp sceening robot (Beckman-Coulter). Protein and test compounds were incubated for 1 h, followed by addition of the fluorescein-labeled peptide.
# Fluorescence polarization was measured after another hour using an Infinite F500 plate reader (Tecan). IC50 values were converted to Ki-values using the published equation.[15]
# endogenous STAT5a/b = assay: Phosphorylation of endogenous STAT5a/b in K562 cells (Western blot)
# Method: In these cells, both STAT5a and STAT5b are constitutively phosphorylated on Tyr694 (STAT5a) and Tyr699 (STAT5b), respectively, by Bcr‐Abl. Since phosphorylation is dependent on the function of the SH2 domain, a STAT5 SH2 domain inhibitor will reduce the ability of STAT5 to be tyrosine phosphorylated by Bcr‐Abl (Figure 5 B).
# Chronic myeloid leukemia K562 cells were obtained from DSMZ (Braunschweig, Germany).
# K562 cells were cultured in RPMI 1640 medium (Gibco Life Technologies), supplemented by 10 % (v/v) FBS (Gibco Life Technologies), 2 mM L-glutamine (Gibco Life Technologies) and 1 % (v/v) penicillin/streptomycin (Gibco Life Technologies), at 37 °C, 5 % CO2 and 95 %
# In brief, cells were transfected with plasmid encoding either human wild-type STAT5a-GFP or STAT5b-GFP. K562 cells (6 x 10^5 cells per well) were seeded into 24-well plate (Corning) and were transfected using Fugene HD Transfection Reagent (Promega) with a 4:1 ratio of Fugene:DNA. […] After harvesting, cells were centrifuged at 3.000 rpm at 4 °C for 5 min. […] Primary antibodies (phospho-STAT5, STAT5, β-Actin; 1:1000, Cell Signaling) were detected using α-rabbit-HRP secondary antibody (1:3000, Dako) and ECL (Western Lightning Plus chemiluminescence reagent, Perkin-Elmer).
# (§1) Visualization was carried out using an ImageQuant digital imaging system (GE Healthcare) and ImageJ software (NIH) was used for quantitative analysis.[17]
# [1] = biological target: T3, STAT5a‐GFP fusion protein (Homo sapiens, UniProt P42229); conditions: K562 cells, 4 h treatment
# T3 sequence (P42229 1-794): T1 sequence (P42229 1-794)
# Method: (§2) 27 was tested for its ability to prevent phosphorylation of STAT5a in K562 cells, a human chronic myelogenous leukemia cell line. In these cells, both STAT5a and STAT5b are constitutively phosphorylated on Tyr694 (STAT5a) and Tyr699 (STAT5b), respectively, by Bcr‐Abl. Since phosphorylation is dependent on the function of the SH2 domain, a STAT5 SH2 domain inhibitor will reduce the ability of STAT5 to be tyrosine phosphorylated by Bcr‐Abl (Figure 5 B).
# (§3) C) Effect of 27 on phosphorylation of STAT5a in STAT5a‐GFP‐transfected K562 cells, and D) on phosphorylation of STAT5b in STAT5b‐GFP‐transfected K562 cells. E, F) Quantitation of the data shown in C) (n=4), and D) (n=3), respectively. Phospho‐STAT5a/b‐GFP levels are normalized against total STAT5a/b‐GFP. All error bars represent standard deviations (s.d.).
# (§4) Chronic myeloid leukemia K562 cells were obtained from DSMZ (Braunschweig, Germany). […]
# (§5) Transfection of cultured K562 cells and Western blotting was performed as previously described.[14, 16] […] Primary antibodies (phospho-STAT5, STAT5, β-Actin; 1:1000, Cell Signaling) were detected using α-rabbit-HRP secondary antibody (1:3000, Dako) and ECL (Western Lightning Plus chemiluminescence reagent, Perkin-Elmer).
# as §1
# STAT5b‐GFP construct = biological target: T4, STAT5b‐GFP construct (Homo sapiens, UniProt P51692); conditions: K562 cells, 4 h treatment
# T4 sequence (P51692 1-787): T2 sequence (P51692 1-787)
# Method: as §2, §3, §4, §5, §1
# [2] = FP assay, IC50 converted to Ki, read-out: STAT5a K i
smiles,measurement,setting,value
O=C(Nc1cccc(OP(=O)(O)O)c1)c1cccc(S(=O)(=O)N2CCCC2)c1 [Compound 7],inhibition at 100 µM,STAT5a,26 ± 17%
same,inhibition at 100 µM,STAT5b,4 ± 9%
same,inhibition at 100 µM,STAT3,3 ± 2%
COc1cc(-c2cc(-c3cc(OC)c(OC)c(OC)c3)cc(C(F)(F)P(=O)(O)O)c2)cc(OC)c1OC [Compound 25],Ki,STAT5a; [2],52 ± 3 µM
O=C(C=Cc1c(F)c(F)c(F)c(F)c1F)c1cccc(OP(=O)(O)O)c1 [Compound 2],inhibition at 100 µM,STAT5a,51 ± 4%
same,inhibition at 100 µM,STAT5b,37 ± 2%
same,inhibition at 100 µM,STAT3,43 ± 2%
CC(=O)Nc1ccc(C=CC(=O)c2cccc(OP(=O)(O)O)c2)cc1 [Compound 4],inhibition at 100 µM,STAT5a,57 ± 2%
same,inhibition at 100 µM,STAT5b,52 ± 4%
same,inhibition at 100 µM,STAT3,29 ± 7%
O=C(CCNS(=O)(=O)c1ccc(C2CCCCC2)cc1)N1CCN(c2ccc(OP(=O)([O-])[O-])cc2)CC1.[Na+].[Na+] [Compound 8],Inhibition of STAT5a at 100 µM,"STAT5a; FP assay, 100 µM",65±5%
same,Inhibition of STAT5b at 100 µM,"STAT5b; FP assay, 100 µM",63±1%
same,Inhibition of STAT3 at 100 µM,"STAT3; FP assay, 100 µM",33±2%
O=C(c1ccc([N+](=O)[O-])cc1)c1coc2ccc(OP(=O)(O)O)cc12 [Compound 5],inhibition at 100 µM,STAT5a,87 ± 2%
same,inhibition at 100 µM,STAT5b,88 ± 1%
same,inhibition at 100 µM,STAT3,26 ± 8%
COc1ccccc1-c1cc(OP(=O)(O)O)cc(-c2ccccc2OC)c1 [Compound 14],IC50,STAT5a,88.7 ± 6.1 µM
same,Ki,STAT5a,43.9 ± 3 µM
same,IC50,STAT5b,158 ± 1 µM
same,Ki,STAT5b,78.6 ± 0.4 µM
same,inhibition at 200 µM,STAT3,28 ± 1%
O=P(O)(O)Oc1cc(-c2ccc3c(c2)OCO3)cc(-c2ccc3c(c2)OCO3)c1 [Compound 18],IC50,STAT5a,28.4 ± 4.4 µM
same,Ki,STAT5a,14 ± 2.1 µM
same,IC50,STAT5b,56.4 ± 1 µM
same,Ki,STAT5b,28 ± 0.5 µM
same,IC50,STAT3,129 ± 5 µM
same,Ki,STAT3,63.8 ± 2.3 µM
COc1cc(-c2cc(-c3cc(OC)c(OC)c(OC)c3)cc(C(F)P(=O)(OCOC(=O)C(C)(C)C)OCOC(=O)C(C)(C)C)c2)cc(OC)c1OC (centres unmarked) [Compound 27],phosphorylation of endogenous STAT5a/b,endogenous STAT5a/b,reduced to a substantially lower degree than that of STAT5a‐GFP
same,phosphorylation of STAT5a Tyr694 in the STAT5a-GFP fusion protein,[1],inhibited in a dose‐dependent manner
same,phosphorylation of Tyr699 in the STAT5b-GFP construct,STAT5b‐GFP construct,only minimally affected
CN(C1CCCCC1)S(=O)(=O)c1cccc(C(=O)N2CCN(c3ccc(OP(=O)(O)O)cc3)CC2)c1 [Compound 9],inhibition at 100 µM,STAT5a,41 ± 8%
same,inhibition at 100 µM,STAT5b,23 ± 8%
same,inhibition at 100 µM,STAT3,33 ± 5%
COc1cccc(-c2cc(OP(=O)(O)O)cc(-c3cccc(OC)c3OC)c2)c1OC [Compound 16],IC50,STAT5a,45.1 ± 9.8 µM
same,Ki,STAT5a,22.3 ± 4.8 µM
same,inhibition at 200 µM,STAT5b,40 ± 2%
same,inhibition at 200 µM,STAT3,15 ± 2%
COc1ccc(-c2cc(OP(=O)(O)O)cc(-c3ccc(OC)c(OC)c3OC)c2)c(OC)c1OC [Compound 21],IC50,STAT5a,111 ± 10 µM
same,Ki,STAT5a,55.2 ± 4.9 µM
same,inhibition at 200 µM,STAT5b,28 ± 2%
same,inhibition at 200 µM,STAT3,15 ± 3%
O=P(O)(O)Oc1cc(-c2ccc3c(c2)OCCO3)cc(-c2ccc3c(c2)OCCO3)c1 [Compound 19],IC50,STAT5a,22.5 ± 3.8 µM
same,Ki,STAT5a,11.1 ± 1.9 µM
same,IC50,STAT5b,71.2 ± 5.7 µM
same,Ki,STAT5b,35.4 ± 2.8 µM
same,IC50,STAT3,104 ± 4 µM
same,Ki,STAT3,51.2 ± 2 µM
COc1cc(-c2cc(CP(=O)(O)O)cc(-c3cc(OC)c(OC)c(OC)c3)c2)cc(OC)c1OC [Compound 24],Ki,STAT5a; [2],75 ± 13 µM
O=P(O)(O)Oc1cc(-c2ccc(Cl)cc2)cc(-c2ccc(Cl)cc2)c1 [Compound 10],IC50,STAT5a,42.2 ± 3.3 µM
same,Ki,STAT5a,20.9 ± 1.6 µM
same,IC50,STAT5b,37.7 ± 0.05 µM
same,Ki,STAT5b,18.7 ± 0.02 µM
same,IC50,STAT3,38.4 ± 1.7 µM
same,Ki,STAT3,18.9 ± 0.9 µM
O=P(O)(O)Oc1cc(-c2cc(F)c(F)c(F)c2)cc(-c2cc(F)c(F)c(F)c2)c1 [Compound 22],IC50,STAT5a,21.9 ± 2.1 µM
same,Ki,STAT5a,10.8 ± 1.1 µM
same,IC50,STAT5b,46.9 ± 0.9 µM
same,Ki,STAT5b,23.3 ± 0.4 µM
same,IC50,STAT3,102 ± 9 µM
same,Ki,STAT3,50.4 ± 4.2 µM
COc1cc(-c2cccc(OP(=O)(O)O)c2)cc(OC)c1OC [Compound 23],IC50,STAT5a,106 ± 4 µM
same,Ki,STAT5a,53 ± 2.1 µM
same,drop in activity against STAT5a on deletion of one phenyl ring of 20,STAT5a; compared with 20,5 fold
same,inhibition at 200 µM,STAT5b,39 ± 1%
same,inhibition at 200 µM,STAT3,40 ± 1%
COc1ccc(-c2cc(OP(=O)(O)O)cc(-c3ccc(OC)cc3)c2)cc1 [Compound 12],IC50,STAT5a,27.9 ± 1.7 µM
same,Ki,STAT5a,13.8 ± 0.8 µM
same,IC50,STAT5b,77.5 ± 0.4 µM
same,Ki,STAT5b,38.5 ± 0.2 µM
same,IC50,STAT3,156 ± 12 µM
same,Ki,STAT3,77.1 ± 5.8 µM
COc1ccc(-c2cc(O)cc(-c3ccc(OC)cc3)c2)cc1 [Compound 12 a],STAT5a inhibition at 200 μM,"STAT5a; FP assay, 200 µM",no inhibition
same,STAT5b inhibition at 200 μM,"STAT5b; FP assay, 200 μM (highest concentration tested)",no inhibition
same,STAT3 inhibition at 200 μM,"STAT3; FP assay, 200 µM",no inhibition
COc1cccc(-c2cc(OP(=O)(O)O)cc(-c3cccc(OC)c3)c2)c1 [Compound 13],IC50,STAT5a,32.3 ± 5.7 µM
same,Ki,STAT5a,16 ± 2.8 µM
same,IC50,STAT5b,86.7 ± 3.1 µM
same,Ki,STAT5b,43.1 ± 1.5 µM
same,inhibition at 200 µM,STAT3,51 ± 2%
COc1cc(-c2cc(-c3cc(OC)c(OC)c(OC)c3)cc(C(F)P(=O)(O)O)c2)cc(OC)c1OC (centres unmarked) [Compound 26],Ki,STAT5a; [2],28 ± 3 µM
same,selectivity over STAT5b and other STAT proteins,STAT5a; FP assays,retained selectivity over STAT5b and other STAT proteins
COc1ccc(-c2cc(OP(=O)(O)O)cc(-c3ccc(Cl)cc3)c2)cc1 [Compound 1],IC50,STAT5a,39.9 ± 1.9 µM
same,Ki,STAT5a,19.7 ± 0.9 µM
same,inhibition at 100 µM,STAT5a,73 ± 5%
same,IC50,STAT5b,49.4 ± 3.3 µM
same,Ki,STAT5b,24.5 ± 1.6 µM
same,inhibition at 100 µM,STAT5b,73 ± 3%
same,IC50,STAT3,120 ± 10 µM
same,Ki,STAT3,59.2 ± 5 µM
same,inhibition at 100 µM,STAT3,43 ± 5%
COc1ccc(-c2cc(OP(=O)(O)O)cc(-c3ccc(OC)c(OC)c3)c2)cc1OC [Compound 15],IC50,STAT5a,33.4 ± 5.2 µM
same,Ki,STAT5a,16.5 ± 2.5 µM
same,inhibition at 200 µM,STAT5b,44 ± 3%
same,inhibition at 200 µM,STAT3,43 ± 2%
O=C(C=Cc1ccccc1C(F)(F)F)c1cccc(OP(=O)(O)O)c1 [Compound 3],inhibition at 100 µM,STAT5a,37 ± 9%
same,inhibition at 100 µM,STAT5b,31 ± 3%
same,inhibition at 100 µM,STAT3,53 ± 3%
O=C(Cn1ccc2ccccc21)Nc1cccc(OP(=O)(O)O)c1 [Compound 6],inhibition at 100 µM,STAT5a,46 ± 6%
same,inhibition at 100 µM,STAT5b,24 ± 14%
same,inhibition at 100 µM,STAT3,11 ± 6%
COc1cc(OC)cc(-c2cc(OP(=O)(O)O)cc(-c3cc(OC)cc(OC)c3)c2)c1 [Compound 17],IC50,STAT5a,34.7 ± 4.5 µM
same,Ki,STAT5a,17.1 ± 2.2 µM
same,IC50,STAT5b,73.4 ± 5 µM
same,Ki,STAT5b,36.5 ± 2.5 µM
same,inhibition at 200 µM,STAT3,50 ± 3%
O=P(O)(O)Oc1cc(-c2ccccc2)cc(-c2ccccc2)c1 [Compound 11],IC50,STAT5a,47.9 ± 4.3 µM
same,Ki,STAT5a,23.7 ± 2.1 µM
same,IC50,STAT5b,95 ± 3 µM
same,Ki,STAT5b,48.4 ± 2 µM
same,inhibition at 200 µM,STAT3,48 ± 1%
